Results on three compounds are retold here after BindingDB's records for PubMed 34491744 (National Center For Advancing Translational Sciences, 2021).

Chain of Galactokinase (P51570 whole entry): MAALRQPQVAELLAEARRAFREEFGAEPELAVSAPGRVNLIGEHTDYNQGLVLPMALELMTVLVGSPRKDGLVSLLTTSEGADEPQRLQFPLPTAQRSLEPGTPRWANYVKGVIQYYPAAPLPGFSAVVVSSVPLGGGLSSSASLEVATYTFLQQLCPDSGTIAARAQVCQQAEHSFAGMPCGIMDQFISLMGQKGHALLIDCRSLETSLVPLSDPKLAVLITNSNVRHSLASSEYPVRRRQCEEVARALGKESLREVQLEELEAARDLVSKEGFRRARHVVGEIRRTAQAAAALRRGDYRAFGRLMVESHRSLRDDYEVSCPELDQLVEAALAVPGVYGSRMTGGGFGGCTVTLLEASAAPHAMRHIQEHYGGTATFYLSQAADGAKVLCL

This experiment addresses Galactokinase (Homo sapiens, UniProt P51570). Kind of experiment: Inhibition of recombinant human GALK1 using galactose as substrate incubated for 1 hrs in the presence of ATP by Kinase-Glo reagent based luminescence assay. A general note: In Kinase-Glo more light means more ATP remaining.
The term IC50 denotes the concentration needed to halve the response being measured. On to `CC1=C(C(=O)NCc2ccccc2O)C(c2ccccc2Cl)N=C(Nc2nc3ccccc3o2)N1` (stereo not drawn), for which the IC50 turned out to be 6.31 µM.
`CC1=C(C(=O)NCc2cncn2C)C(c2ccccc2Cl)N=C(Nc2nc3ccccc3o2)N1` (stereo not drawn): the IC50 was determined as 1.58 µM.
With `CC1=C(C(=O)Nc2cc(C(=O)O)ccn2)C(c2ccccc2Cl)N=C(Nc2nc3cc(F)ccc3o2)N1` (stereo not drawn), the IC50 came out at 3.16 µM.
